Data reported in patent US11590116B2 (THERAVANCE BIOPHARMA R&D IP, LLC, priority 2019, dated 2023).

Legend:
[1] = target: T1, recombinant human ALK5 (TGF-βR1) protein (Homo sapiens, UniProt P36897); assay: Biochemical ALK5 (TGF-βR1) assay to measure pKi (LANCE Ultra ULight kinase assay); details: apparent pKi from pIC50 by Cheng-Prusoff, read-out: ALK5 pKi (converted)
T1 construct: purchased Life Technologies PR9075A
T1 sequence (P36897 34-503): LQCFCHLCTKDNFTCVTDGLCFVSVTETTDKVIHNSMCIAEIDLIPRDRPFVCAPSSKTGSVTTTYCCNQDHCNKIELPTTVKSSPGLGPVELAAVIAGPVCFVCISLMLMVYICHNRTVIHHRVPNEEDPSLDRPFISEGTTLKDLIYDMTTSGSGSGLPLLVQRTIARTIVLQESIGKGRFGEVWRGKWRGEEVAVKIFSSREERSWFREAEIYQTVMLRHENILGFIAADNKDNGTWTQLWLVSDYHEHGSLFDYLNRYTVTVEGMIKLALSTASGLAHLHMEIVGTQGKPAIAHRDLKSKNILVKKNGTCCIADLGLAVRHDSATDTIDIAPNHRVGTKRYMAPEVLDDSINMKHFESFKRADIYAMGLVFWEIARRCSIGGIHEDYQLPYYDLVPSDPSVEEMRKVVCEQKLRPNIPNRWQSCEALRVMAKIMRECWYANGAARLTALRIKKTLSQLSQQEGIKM
Procedure, shortened: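 After a 60 min room-temperature preincubation of ALK5 with compound, phosphorylation proceeds 60 min at 37 °C on ATP addition (125 μM as 5× stock). Detection: Eu-labelled phospho-Thr1342 Topo IIα antibody in EDTA buffer, pH 7.0; emission 665 nm.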

[2] = tested on: TGF-β-stimulated SMAD3 phosphorylation in BEAS-2B cells; assay: Cellular ALK5 potency assay, inhibition of TGF-β stimulated pSMAD3 formation in BEAS-2B cells; assay type: cell-based; details: Homo sapiens; inhibition of TGF-β stimulated pSMAD3 formation, BEAS-2B cells; read-out: BEAS2B pIC50 (converted)
Procedure, shortened: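 BEAS-2B human lung epithelial cells pre-treated 1 h at 37° C with compound in HBSS/25 mM HEPES/1% BSA, then stimulated 30 min with 10 ng/mL TGF-β (final). Lysates assayed for pSMAD3 by AlphaLISA; pIC50 from dose-dependent change versus stimulated untreated cells.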

Row | Compound | Ki [1] [nM] | IC50 [2] [nM]
1 | CNC1CCN(c2cnc3ccc(-c4c[nH]nc4-c4ccc(F)c(C)n4)nc3c2)CC1 [Compound 264, 1-[6-[3-(5-fluoro-6-methyl-2-pyridyl)-1H-pyrazol-4-yl]-1,5-naphthyridin-3-yl]-N-methyl-piperidin-4-amine] | < 0.0316 | 25.1 to 158
2 | Cc1nc(-c2n[nH]cc2-c2ccc3ncc(-c4[nH]nc5c4CNCC5)cc3n2)ccc1F [Compound 173, 2-[3-(5-fluoro-6-methyl-2-pyridyl)-1H-pyrazol-4-yl]-7-(4,5,6,7-tetrahydro-2H-pyrazolo[4,3-c]pyridin-3-yl)-1,5-naphthyridine] | 0.0398 to 0.316 | 200 to 1260
3 | Cc1cccc(-c2[nH]cnc2-c2ccc3ncc(-c4cccc5c4CNC5)cc3c2)n1 [Compound 636, 3-isoindolin-4-yl-6-[5-(6-methyl-2-pyridyl)-1H-imidazol-4-yl]quinoline] | 0.0398 to 0.316 | 25.1 to 158
4 | Cc1cccc(-c2nc3ncccn3c2-c2ccc3ncc(-c4cn[nH]c4)cc3n2)n1 [Compound 676, 2-(2-(6-methylpyridin-2-yl)imidazo[1,2-a]pyrimidin-3-yl)-7-(1H-pyrazol-4-yl)-1,5-naphthyridine] | 0.0398 to 0.316 | 25.1 to 158
5 | Cc1cccc(-c2[nH]cnc2-c2ccc3ncc(N4CCNCC4)cc3c2)n1 [Compound 412, 6-[5-(6-methyl-2-pyridyl)-1H-imidazol-4-yl]-3-piperazin-1-yl-quinoline] | 0.0398 to 0.316 | < 20
6 | Cc1cccc(-c2[nH]cnc2-c2ccc3nccc(C4CCCN4)c3c2)n1 (stereo not shown) [Compound 154, 6-[5-(6-methyl-2-pyridyl)-1H-imidazol-4-yl]-4-pyrrolidin-2-yl-quinoline] | 3.98 to 31.6 | 200 to 1260
7 | Cc1nc(-c2[nH]cnc2-c2ccc3ncc(NCCN4CCCC4)cc3n2)ccc1F [Compound 568, 6-[5-(5-fluoro-6-methyl-2-pyridyl)-1H-imidazol-4-yl]-N-(2-pyrrolidin-1-ylethyl)-1,5-naphthyridin-3-amine] | 0.0398 to 0.316 | 25.1 to 158
8 | Cc1cccc(-c2nc3ccccn3c2-c2ccc3ncc(N4CCC(N5CCN(C)CC5)CC4)cc3c2)n1 [Compound 95, 3-[4-(4-methylpiperazin-1-yl)-1-piperidyl]-6-[2-(6-methyl-2-pyridyl)imidazo[1,2-a]pyridin-3-yl]quinoline] | 0.0398 to 0.316 | 25.1 to 158
9 | Cc1cccc(-c2n[nH]cc2-c2ccc3ncc(NC(=O)CCCN4CCOCC4)cc3n2)n1 [Compound 358, N-[6-[3-(6-methyl-2-pyridyl)-1H-pyrazol-4-yl]-1,5-naphthyridin-3-yl]-4-morpholino-butanamide] | 0.0398 to 0.316 | 25.1 to 158
10 | Cc1cccc(-c2[nH]cnc2-c2ccc3ncc(N4CCNC(CC(=O)O)C4)cc3c2)n1 (stereo not shown) [Compound 500, 2-(4-(6-(5-(6-methylpyridin-2-yl)-1H-imidazol-4-yl)quinolin-3-yl)piperazin-2-yl)acetic acid] | 0.0398 to 0.316 | 1580 to 10000
11 | Cc1cccc(-c2n[nH]cc2-c2ccc3ncc(N4CCN(CCN)CC4)cc3n2)n1 [Compound 281, 2-[4-[6-[3-(6-methyl-2-pyridyl)-1H-pyrazol-4-yl]-1,5-naphthyridin-3-yl]piperazin-1-yl]ethanamine] | < 0.0316 | 200 to 1260
12 | Cc1cccc(-c2[nH]cnc2-c2ccc3ncc(C4=CCN(C(C)C)C4)cc3c2)n1 [Compound 319, 3-(1-isopropyl-2,5-dihydropyrrol-3-yl)-6-[5-(6-methyl-2-pyridyl)-1H-imidazol-4-yl]quinoline] | < 0.0316 | 25.1 to 158
13 | Cc1cccc(-c2[nH]cnc2-c2ccc3ncc(NCCN4CC5CNC5C4)cc3c2)n1 (stereo not shown) [Compound 129, N-[2-(3,6-diazabicyclo[3.2.0]heptan-3-yl)ethyl]-6-[5-(6-methyl-2-pyridyl)-1H-imidazol-4-yl]quinolin-3-amine] | 0.0398 to 0.316 | 200 to 1260
14 | Cc1cccc(-c2[nH]cnc2-c2ccc3ncc(NC4CC5(CNC5)C4)cc3c2)n1 [Compound 200, N-(2-azaspiro[3.3]heptan-6-yl)-6-[5-(6-methyl-2-pyridyl)-1H-imidazol-4-yl]quinolin-3-amine] | 0.0398 to 0.316 | 200 to 1260
15 | Cc1cccc(-c2n[nH]cc2-c2ccc3ncc(N4CC(CN)C4)cc3n2)n1 [Compound 279, [1-[6-[3-(6-methyl-2-pyridyl)-1H-pyrazol-4-yl]-1,5-naphthyridin-3-yl]azetidin-3-yl]methanamine] | 0.0398 to 0.316 | 25.1 to 158
16 | Cc1cccc(-c2[nH]cnc2-c2ccc3ncc(Nc4ccc(N5CCNCC5)cn4)cc3c2)n1 [Compound 519, 6-[5-(6-methyl-2-pyridyl)-1H-imidazol-4-yl]-N-(5-piperazin-1-yl-2-pyridyl)quinolin-3-amine] | 0.0398 to 0.316 | 200 to 1260
17 | FC(F)(F)c1cccc(-c2n[nH]cc2-c2ccc3ncc(N4CCCNCC4)cc3n2)n1 [Compound 383, 7-(1,4-diazepan-1-yl)-2-[3-[6-(trifluoromethyl)-2-pyridyl]-1H-pyrazol-4-yl]-1,5-naphthyridine] | 0.398 to 3.16 | 200 to 1260
18 | Cc1nc(-c2n[nH]cc2-c2ccc3ncc(-c4cnn(CCN)c4)cc3n2)ccc1F [Compound 192, 2-[4-[6-[3-(5-fluoro-6-methyl-2-pyridyl)-1H-pyrazol-4-yl]-1,5-naphthyridin-3-yl]pyrazol-1-yl]ethanamine] | < 0.0316 | < 20
19 | Cc1cccc(-c2[nH]cnc2-c2ccc3ncc(N4CCN[C@H](C(=O)O)C4)cc3c2)n1 [Compound 682, (2S)-4-[6-[5-(6-methyl-2-pyridyl)-1H-imidazol-4-yl]-3-quinolyl]piperazine-2-carboxylic acid] | 0.398 to 3.16 | 200 to 1260
20 | Cc1cccc(-c2n[nH]cc2-c2ccc3ncc(N4CC(C)N(CCN)C(C)C4)cc3n2)n1 (stereo not shown) [Compound 283, 2-[2,6-dimethyl-4-[6-[3-(6-methyl-2-pyridyl)-1H-pyrazol-4-yl]-1,5-naphthyridin-3-yl]piperazin-1-yl]ethanamine] | 0.0398 to 0.316 | 200 to 1260

Now from value to compound, other results behind:

Row | Ki [1] [nM] | Compound | IC50 [2] [nM]
21 | 0.398 to 3.16 | Cc1cccc(-c2[nH]cnc2-c2ccc3ncc(C(=O)OC[C@@H]4CCCN4)cc3c2)n1 [Compound 762, [(2S)-pyrrolidin-2-yl]methyl 6-[5-(6-methyl-2-pyridyl)-1H-imidazol-4-yl]quinoline-3-carboxylate] | 25.1 to 158
22 | 0.398 to 3.16 | Cc1cccc(-c2[nH]ncc2-c2ccc3nccc(C(=O)O[C@H]4C[C@@H](N)C4)c3c2)n1 [Compound 1047, (3-aminocyclobutyl) 6-[5-(6-methyl-2-pyridyl)-1H-pyrazol-4-yl]quinoline-4-carboxylate] | 25.1 to 158
23 | 0.0398 to 0.316 | Cc1cccc(-c2[nH]cnc2-c2ccc3ncc(-c4nc(C(=O)O[C@H]5CCN(C)C5)cs4)cc3c2)n1 [Compound 747, [(3S)-1-methylpyrrolidin-3-yl] 2-[6-[5-(6-methyl-2-pyridyl)-1H-imidazol-4-yl]-3-quinolyl]thiazole-4-carboxylate] | < 20
24 | 0.0398 to 0.316 | Cc1cccc(-c2n[nH]cc2-c2ccc3nccc(CNCCCN4CCOCC4)c3n2)n1 [Compound 815, N-[[6-[3-(6-methyl-2-pyridyl)-1H-pyrazol-4-yl]-1,5-naphthyridin-4-yl]methyl]-3-morpholino-propan-1-amine] | 25.1 to 158
25 | 0.0398 to 0.316 | Cc1cccc(-c2n[nH]cc2-c2ccc3nccc(N(C)CCCN4CCOCC4)c3n2)n1 [Compound 848, N-methyl-6-[3-(6-methyl-2-pyridyl)-1H-pyrazol-4-yl]-N-(3-morpholinopropyl)-1,5-naphthyridin-4-amine] | 200 to 1260
26 | 0.0398 to 0.316 | Cc1cccc(-c2[nH]cnc2-c2ccc3ncc(-c4csc(C(=O)OCCN5CCNCC5)n4)cc3c2)n1 [Compound 1096, 2-piperazin-1-ylethyl 4-[6-[5-(6-methyl-2-pyridyl)-1H-imidazol-4-yl]-3-quinolyl]thiazole-2-carboxylate] | 25.1 to 158
27 | 0.0398 to 0.316 | Cc1cccc(-c2[nH]cnc2-c2ccc3ncc(-c4nc(C(=O)OCCN5CCC[C@@H](N)C5)cs4)cc3c2)n1 [Compound 1252, 2-[(3R)-3-amino-1-piperidyl]ethyl 2-[6-[5-(6-methyl-2-pyridyl)-1H-imidazol-4-yl]-3-quinolyl]thiazole-4-carboxylate] | 25.1 to 158
28 | < 0.0316 | Cc1cccc(-c2[nH]cnc2-c2ccc3ncc(-c4csc(C(=O)OCCN5CCNCC5)c4)cc3c2)n1 [Compound 1242, 2-piperazin-1-ylethyl 4-[6-[5-(6-methyl-2-pyridyl)-1H-imidazol-4-yl]-3-quinolyl]thiophene-2-carboxylate] | 25.1 to 158
29 | 0.0398 to 0.316 | Cc1cccc(-c2[nH]ncc2-c2ccc3ncc(C(=O)O[C@H]4CCCNC4)cc3c2)n1 [Compound 1201, [(3S)-3-piperidyl] 6-[5-(6-methyl-2-pyridyl)-1H-pyrazol-4-yl]quinoline-3-carboxylate] | 25.1 to 158
